The results in this text go back to ChEMBL document CHEMBL5154819 (Eur J Med Chem, 2022).

Series [1] has as its system Mus musculus. In words: Antinociceptive activity in acetic acid induced ICR mouse assessed as inhibition effect at 6.25 mg/kg, iv administered for 15 mins followed by acetic acid injection and measured within 15 mins. Format: functional. To be noted: 0.5 h, time 30 min.
In series [2] the test system is Mus musculus. Kind of series: Analgesic activity in iv dosed ICR mouse assessed as reduction in acetic acid induced writhing administered for 15 mins followed by acetic acid injection and measured within 15 mins. Format: functional. To be noted: 0.5 h, time 30 min. (In writhing tests, fewer writhes than in controls are read as antinociception.)
Series [3] is described as follows: Aqueous solubility of the compound.
Series [4] relates to Mus musculus. Kind of series: Analgesic activity in acetic acid induced ICR mouse assessed as average writhing times at 6.25 mg/kg, iv administered for 15 mins followed by acetic acid injection and measured within 15 mins (reference value: 26.1 +/- 16.3). To be noted: time 30 min, 0.5 h. Type of series: functional.
Series [5] deals with Mus musculus. In words: Analgesic activity in acetic acid induced ICR mouse assessed as average writhing times at 3.13 mg/kg, iv administered for 15 mins followed by acetic acid injection and measured within 15 mins (reference value: 26.1 +/- 16.3). Format: functional. To be noted: time 30 min, 0.5 h.
Series [6] deals with Mus musculus. Kind of series: Analgesic activity in acetic acid induced ICR mouse assessed as average writhing times at 25 mg/kg, iv administered for 15 mins followed by acetic acid injection and measured within 15 mins (reference value: 26.1 +/- 16.3). Format: functional. To be noted: time 30 min, 0.5 h.
The subject of series [7] is Mus musculus. Kind of series: Analgesic activity in acetic acid induced ICR mouse assessed as average writhing times at 12.50 mg/kg, iv administered for 15 mins followed by acetic acid injection and measured within 15 mins (reference value: 26.1 +/- 16.3). Type of series: functional. As to conditions: dose 12.5 mg/kg, time 30 min, 0.5 h.
For series [8], the system named is Mus musculus. In words: Antinociceptive activity in acetic acid induced ICR mouse assessed as inhibition effect at 25 mg/kg, iv administered for 15 mins followed by acetic acid injection and measured within 15 mins. As to conditions: 0.5 h, time 30 min. Type of series: functional.
Series [9] relates to Mus musculus. Kind of series: Antinociceptive activity in acetic acid induced ICR mouse assessed as inhibition effect at 3.13 mg/kg, iv administered for 15 mins followed by acetic acid injection and measured within 15 mins. Type of series: functional. As to conditions: 0.5 h, time 30 min.
The subject of series [10] is Mus musculus. Kind of series: Antinociceptive activity in acetic acid induced ICR mouse assessed as inhibition effect at 12.50 mg/kg, iv administered for 15 mins followed by acetic acid injection and measured within 15 mins. Type of series: functional. To be noted: 0.5 h, time 30 min.
Another series is filed under the species Rattus norvegicus. Kind of series: Antiinflammatory activity in carrageenan-induced Sprague-Dawley rat assessed as paw withdrawal threshold measured after 2.5 hrs by paw pressure test. Type of series: functional.
For series [11], the system named is Mus musculus. Kind of series: Antinociceptive activity in acetic acid induced ICR mouse assessed as inhibition effect at 50 mg/kg, iv administered for 15 mins followed by acetic acid injection and measured within 15 mins. Format: functional. To be noted: 0.5 h, time 30 min.
A short description of series [12]: Aqueous solubility of the compound at pH 7.8. Format: physicochemical.
The subject of series [13] is Mus musculus. Kind of series: Analgesic activity in acetic acid induced ICR mouse assessed as average writhing times at 50 mg/kg, iv administered for 15 mins followed by acetic acid injection and measured within 15 mins (reference value: 26.1 +/- 16.3). To be noted: time 30 min, 0.5 h. Format: functional.

In brackets after ≈: the same amount, converted by molar mass.

In the case of `CC(C)Cc1ccc(C(C)C(=O)O)cc1` (stereo not drawn) [IBUPROFEN], in the series on Mus musculus [1], the inhibition in vivo at 6.25 mg/kg turned out to be 76.6%. Moreover, the ED50 in the series on Mus musculus [2] amounted to 5 mg/kg; in the series listed under Rattus norvegicus, 21 mg/kg. This compound gave a solubility in series [3] of 21.9 µg/mL (≈ 106 µM). In addition, the Activity with Mus musculus [4] came to 6.1; in the series on Mus musculus [5], 21; with Mus musculus [6], 3; in the series on Mus musculus [7], 4. Further, the inhibition in vivo at 25 mg/kg in the series with Mus musculus [8] worked out at 88.5%. The inhibition in vivo at 3.13 mg/kg in the series on Mus musculus [9] was determined as 19.5%. For the same compound, the inhibition in vivo at 12.5 mg/kg in the series on Mus musculus [10] turned out to be 84.7%.
In the case of `CCC(=O)[N-]S(=O)(=O)c1ccc(-c2c(-c3ccccc3)noc2C)cc1.[Na+]` [PARECOXIB SODIUM], the inhibition in vivo at 6.25 mg/kg in the series on Mus musculus [1] was found to be 14.9%. Moreover, the inhibition in vivo at 50 mg/kg with Mus musculus [11] stood at 90.8%. Moreover, the ED50 in the series on Mus musculus [2] amounted to 15.7 mg/kg; in the series listed under Rattus norvegicus, 22.7 mg/kg. Moreover, the Activity in the series on Mus musculus [4] is given as 22.2; with Mus musculus [5] it was 21; in the series with Mus musculus [6], 10.1; in the series with Mus musculus [7] it was 13.7; in the series on Mus musculus [13], 2.4. The compound further had a solubility in [12] of 18000 µg/mL. Besides, the inhibition in vivo at 25 mg/kg with Mus musculus [8] stood at 61.3%. Besides, the inhibition in vivo at 12.5 mg/kg in the series with Mus musculus [10] turned out to be 47.5%.

The inhibition in vivo is the drop in the measured response relative to a control, in per cent. A word on the ED50: it is the midpoint of the dose-response relation. The term solubility denotes the concentration that dissolves in the medium under given conditions. Higher therefore signals much dissolved substance.
